Reference: patent US6759397B2, “Ginsenoside chemotherapy” (The University of British Columbia, priority 2000, dated 2004)
Read-outs that look alike come from different tables or passages of the source.

Tests used:
MDA435/LCC6W cells = experiment: Viable cell count, Rh2 with paclitaxel, wild-type breast cancer cells; assay type: cell-based; conditions: Homo sapiens, L6W (wild-type MDA435/LCC6W)
Description: (§1) Human breast cancer cells MDA435/LCC6 cells, both wild-type (MDA435/LCC6W) or a drug resistant strain expressing a transfected multidrug resistant gene encoding P-glycoprotein (MDA435/LCC6M), were incubated with 20 μg/ml or 30 μg/ml of Rh2 in the presence of paclitaxel at various concentrations. Viable cells were counted 24 hrs after treatment.

MDA435/LCC6M cells [1] = experiment: Viable cell count, Rh2 with paclitaxel, multidrug resistant breast cancer cells expressing P-glycoprotein; conditions: for IC50: Homo sapiens, MDA435, 24 h
Description: as §1

[2] = system: human prostate cancer cells LNCaP; experiment: Cytotoxicity of Rh2 with mitoxantrone or paclitaxel, cellular viability of LNCaP cells; assay type: cell-based
Description: In one aspect, the invention provides therapeutically synergistic effects of Rh2 with chemotherapeutic compounds.

[3] = system: Mesothelioma cells (MS-1 cells); experiment: Viability of non-Pgp multidrug resistant mesothelioma cells, Rh2 with cisplatin or paclitaxel; assay type: cell-based
MDA435/LCC6M cells [4] = system: MDA435/LCC6M cells
Description: as §1

IC50 (MDA435/LCC6W cells; no Rh2, viable cells counted 24 hrs after treatment, read-out: Calculated IC50 of paclitaxel, Paclitaxel alone) [nM]	IC50 (MDA435/LCC6W cells; with 20 μg/ml Rh2, 24 hrs, read-out: Calculated IC50 of paclitaxel, Pac. + 20 μg/ml Rh2) [nM]	IC50 (MDA435/LCC6W cells; with 30 μg/ml Rh2, 24 hrs, read-out: Calculated IC50 of paclitaxel, Pac. + 30 μg/ml Rh2) [nM]	IC50 (MDA435/LCC6M cells [1]; read-out: Calculated IC50 of paclitaxel, Pac. + 20 μg/ml Rh2) [nM]	IC50 (MDA435/LCC6M cells [1]; read-out: Calculated IC50 of paclitaxel, Pac. + 30 μg/ml Rh2) [nM]	IC50 (MDA435/LCC6M cells [1]; read-out: Calculated IC50 of paclitaxel, Paclitaxel alone) [nM]	SMILES	Paclitaxel concentration at which cytotoxicity was shown in the presence of Rh2 (MDA435/LCC6M cells [1]; MDA435/LCC6M, with Rh2, as low as) [nM]	Cytotoxicity of Rh2 alone ([2]; 20 μg/ml Rh2, LNCaP)	Effect of Rh2 on cytotoxicity of paclitaxel ([2]; 20 μg/ml Rh2, particularly 0.1 nM and 1 nM paclitaxel, LNCaP)	Effect of Rh2 on cytotoxicity of mitoxantrone ([2]; 20 μg/ml Rh2, wide range of mitoxantrone concentrations, LNCaP)	Synergistic effect of Rh2 with cisplatin ([3]; 20 μg/ml Rh2, various cisplatin concentrations)	Synergistic effect of Rh2 with paclitaxel ([3]; 20 μg/ml Rh2, various paclitaxel concentrations)	Effect of Rh2 on cytotoxicity of paclitaxel (MDA435/LCC6M cells [4])	Effect of Rh2 alone on the cells (MDA435/LCC6M cells [1]; MDA435/LCC6M, 20 or 30 μg/ml Rh2, 24 hrs)
248	75	25	0.15	< 0.03	631	CC(=O)O[C@H]1C(=O)[C@@]2(C)[C@H]([C@H](OC(=O)c3ccccc3)[C@]3(O)C[C@H](OC(=O)[C@H](O)[C@@H](NC(=O)c4ccccc4)c4ccccc4)C(C)=C1C3(C)C)[C@]1(OC(C)=O)CO[C@@H]1C[C@@H]2O [Paclitaxel]	0.1							
						CC(C)=CCC[C@](C)(O)[C@H]1CC[C@]2(C)[C@@H]1[C@H](O)C[C@@H]1[C@@]3(C)CC[C@H](O[C@@H]4O[C@H](CO)[C@@H](O)[C@H](O)[C@H]4O)C(C)(C)[C@@H]3CC[C@]12C [Rh2]		little or no significant cytotoxicity alone	added significantly to the cytotoxicity of paclitaxel	added significantly to the cytotoxicity of mitoxatron	significant	significant	unexpectedly and significantly enhanced by Rh2	little or no effect on the cells
